Data on 33 substances can be found in US9796777B2, “Methods of treating malignant tumors” (Canimguide Therapeutics AB, priority 2007, dated 2017).

Where “and” joins values, the source holds several entries; their conditions need not be identical. Identical values can stand only once.

Assay [1] deals with cell surface receptors of immune cells (ACS). The experiment in a line: Adsorption of enzyme fragmented dHSA on affinity column with biotinylated cell surface proteins (ACS), MALDI-TOF ms. In kind it is binding, human. The note with it: for Per cent adsobed: Table 6 A, molecular weight 700-3600 Da. The procedure: Based on the observation that immunoregulatory peptide sequences are present in serum albumin, there is the possibility that other sequences than the epitope of mAb A have immunoregulatory function. Therefore an artificial cell surface (ACS) was prepared as described in materials and methods. […]
To remove unfragmented albumin and enzyme, the sample was ultra filtered through an Amicon Ultra 4 (mw cut-off of 5000) or a Centriplus (mw cut-off 10000) centrifugal filter (Millipore AB, Solna, Sweden). The filtrate, containing fragmented dHSA without enzymes, was collected and diluted with PBS with Ca and Mg (GIBCO).
Buffy coats generated from 450 ml blood each was collected from 4 healthy donors. Erythrocytes were removed by sedimentation on 2% dextran T500 solution (Amersham Pharmacia Biotech AB, Uppsala Sweden) in 0.9% NaCl. Mononuclear cells (PBMC) were then isolated by Ficoll-Paque Plus (GE Healthcare Bioscience AB Sweden) density gradient centrifugation. The PBMC were then suspended in phosphate buffered saline (PBS) containing Ca and Mg (GIBCO) at a concentration of 10×10^6/ml. EZ Link Sulfo-NHS-biotin (Pierce USA) was added at a final concentration of 0.2 mg/ml and the mixture incubated on a shaker at room temperature for 10 min. Excess biotin was then removed by washing the PBMC in PBS. Biotinylated PBMC were then lysed by adding 1.0 ml ice-cold lysing buffer (50 mM Tris-HCL, pH 7.5, with 0.15 M NaCl, 5 mM MgCl2 containing 100 mM Octyl glucoside and 1 mM Phenylmethylsulfonyl fluoride) per 2×10^7 pelleted cells with gentle shaking, then incubated for 30 min. on ice. Debris was removed by centrifugation at 5000×g at 4° C. for 10 min and the supernatants was collected and pooled from all four donors. The lysate was then stored at −70° C. in polypropylene plastic tubes.
This amount of lysate corresponds to 36×10^7 mononuclear cells. It was added to a 1 ml Hitrap Streptavidin HP affinity column (Amersham Biosciences). To block possible remaining free biotin, 5 ml of 0.1 M glycine (Sigma) was added to the column. Unsaturated streptavidin on the column was then reacted with 150 ug biotin (Sigma) in binding buffer. The column was carefully washed with PBS and stored in PBS with 0.1% NaN3 at 4° C. until use.
27 ml biotinylated cell lysate in binding buffer (corresponding to 54×10^7 mononuclear cells) was added to 1.5 ml washed Streptavidin Sepharose HP (Amersham Biosciences). To block possible remaining free biotin, 25 ml of 0.1 M glycine (Sigma) was added to the Streptavidin Sepharose. Unsaturated streptavidin was then reacted with 225 μg biotin (Sigma) in binding buffer. The Streptavidin Sepharose was carefully washed in PBS. One ml of the biotinylated cell lysate coupled Streptavidin Sepharose was then packed in an empty column (Tricorn Empty High Performance Column, Amersham Bioscience) and washed with phosphate buffered saline (PBS) containing Ca and Mg (GIBCO).
The flow-through was collected with consideration taken to void volume and dilution of adsorbed sample by collecting in small portions of 0.2 ml. Thirty ul of each sample, including a control sample that has not been adsorbed, were dried in a Speed-Vac centrifuge.
Dried samples were reconstituted in 10 ul of 0.1% TFA. Zip Tip pipette tips (Millipore, USA) containing C18 reversed-phase media were used for desalting reconstituted samples. […] For the analysis of samples in the mass range 1500-9000 Da, one μl of each Zip Tip eluted sample was mixed with 1 μl of sinapinic acid ([…]). […] Mass identity search of resulting spectra was performed in the SwissProt or NCBI databases using MS-Fit.

The subject of the next assay is PBMC. Description: LPS-induced IL-6 production by PBMC, effect of peptides. Format: cell-based, human. As to conditions: PBMCs from one healthy control; lowest peptide concentration. The procedure: 100 μl of culture medium consisting of RPMI1640 supplemented with 200 IU/ml penicillin, 200 μg/ml streptomycin, 4 mM L-glutamine (Sigma Chemical, Mo., US) and 20% fresh heat-inactivated autologous serum were added to un-coated or -pre-coated microtiter plates followed by 100 μl of PBMC suspension (5×10^4 lymphocytes) in RPMI/2% HSA with peptides at the indicated concentrations. Lipoplysaccharide (LPS, Sigma Chemical Co, MO, US) was added at a final concentration of 0.05 ng/ml. […] All assay conditions were set up in triplicate wells. Supernatants (SNs) were harvested after 24 hrs and residual cells were removed by centrifugation in a refrigerated centrifuge (Beckman) at 2600×g for 5 minutes. SNs were frozen and stored at −70° C. IL-6 in cell culture SNs was measured by ELISA using the DuoSet® ELISA development kit for human IL-6 (R&D Systems Europe, Ltd., Abingdon, UK) following the manufacturer's recommended procedures. The lower limit of detection was 3.1 pg/ml. Samples were analysed as mean of triplicate wells.

A further assay concerns PBMCs. The experiment in a line: PHA-induced proliferation of PBMC in the presence of albumin peptides and/or dHSA. In kind it is cell-based, human. From the text:
Venous blood was drawn from healthy volunteers or from cancer patients in glass vacuum tubes with acid dextrose citrate solution A as anti-coagulant (Vacutainer, Becton Dickinson, Franklin Lakes, N.J.). Erythrocytes were removed by sedimentation on 2% dextran T500 solution (Amersham Pharmacia Biotech AB, Uppsala, Sweden) in 0.9% NaCl (this step was omitted for cultures with PHA-stimulation-see below). […] For cell cultures with PHA-stimulation, PBMC were washed in Hank's Balanced Salt Solution (HBSS) with 10% autologous plasma instead of RPMI/2% HSA. […] The cell suspension was stained with Turk's solution and the number of lymphocytes and monocytes in the PBMC preparation were counted in a hemocytometer. PBMCs were suspended in RPMI/2% HSA and the cell concentration adjusted to 5×10^5 lymphocytes/ml.
100 μl of the cell suspension were seeded into round-bottomed microtiter plates (Corning, N.Y., USA) followed by 100 μl of culture medium consisting of RPMI 1640 (Flow Laboratories, Irvine, Scotland) supplemented with 200 IU/ml Penicillin, 200 μg/ml Streptomycin (Flow laboratories) and 20% heat inactivated autologous serum. Phytohemagglutinin (PHA-P, Sigma Chemical Co, St. Louis, Mo.) at a final concentration of 5 or 10 μg/ml was then added.
All culture conditions were set up in triplicate wells. […] Mean values of disintegrations per minute (dpm) of triplicates were used for the calculations.

The mark [2] stands for this setting: Table 5 A, peptides generated by trypsin degradation of dHSA.
The mark [3] stands for this setting: Table 6 B, ASP-DHSA, molecular weight 3200-9000 Da.
The mark [4] stands for this setting: Table 5 B, trypsin peptides selected for synthesis.

“ETYGEMADCCAK [106-117, tryptic peptide of dHSA]”: the Per cent adsorbed in assay [1] (setting [2]) is -0.08 Per cent.

With “RVTKC CTESLVNRRPCFSALEVDETYVPKEFNAETFTFHA (RVTKCCTESLVNRRPCFSALEVDETYVPKEFNAETFTFHA; HOMO SAPIENS) [ASP-N fragment of dHSA]”, the Per cent adsorbed in assay [1] (setting [3]) is 1.00 Per cent.

Regarding “VHTECCHGDLLECADDR [tryptic peptide of dHSA]”, the Per cent adsorbed in assay [1] (setting [2]) is on record as 0.13 Per cent.

For “DSISSKLKECCEKPLLEKSHCIAEVEN [ASP-N fragment of dHSA]”, in assay [1] (ASP-DHSA), the Per cent adsobed was determined as 0.65 Per cent.

As to “NECFLQHK [(R)NECFLQHK (D), tryptic peptide of dHSA]”, the Per cent adsorbed in assay [1] (setting [2]) stood at 0.22 Per cent.

For “YICENQDSISSK [287-298, tryptic peptide of dHSA]”, in assay [1] (setting [2]), the Per cent adsorbed is given as 0.03 Per cent.

Substance “CCAAADPHECYAK [384-396, tryptic peptide of dHSA]” showed a Per cent adsorbed in assay [1] (setting [2]) of 0.32 Per cent.

For “SISSKLKECCEKPLLEK SHClAEVEN DEMPA (SISSKLKECCEKPLLEKSHCIAEVENDEMPA; HOMO SAPIENS) [ASP-N fragment of dHSA]”, the “binding to ACS” value in assay [1] (asparaginase degraded dHSA) is given as “contradictory results”.

With “DKLCTVATLRETYGEM [ASP-N fragment of dHSA]”, in assay [1] (ASP-DHSA), the Per cent adsobed was 0.65 Per cent.

On to “YKAAFTECCQAADK [tryptic peptide of dHSA]”, for which the Per cent adsorbed in assay [1] (setting [2]) is reported as -0.37 Per cent.

For “QNCELFEQLGEYK [414-426, tryptic peptide of dHSA]”, the Per cent adsorbed in assay [1] (setting [2]) and in assay [1] (setting [4]) was 0.20 Per cent in each case.

In the case of “DETYVPKEFNAETFTHA [ASP-N fragment of dHSA]”, in assay [1] (ASP-DHSA), the Per cent adsobed amounted to 0.86 Per cent.

For “QEPERNECFLQHK [(K)QEPERNECFLQHK (D), tryptic peptide of dHSA]”, the Per cent adsorbed in assay [1] (setting [2]) is 0.26 Per cent and 0.18 Per cent.

Turning to KLVNEVTEFAKT [peptide 2604], in the assay with PBMC, the “effect on LPS induced IL-6 production” value is recorded as “stimulatory”.

In assay [1] (setting [2]), “AAFTECCQAADK [(K)AAFTECCQAADK (A), tryptic peptide of dHSA]” yielded a Per cent adsorbed of 0.29 Per cent.

In assay [1] (ASP-DHSA), “DDKETCFAEEGKKLVAASQAALGL [ASP-N fragment of dHSA]” displayed a Per cent adsobed of 1.00 Per cent.

In assay [1] (ASP-DHSA), “DHVKLVNEVTEFAKTCVA [ASP-N fragment of dHSA]” displayed a Per cent adsobed of 1.00 Per cent.

In turn, “YSVVLL LRLAKTYETT LEKCCAAADP HECYAKVF (YSVVLLLRLAKTYETTLEKCCAAADPHECYAKVF; HOMO SAPIENS) [ASP-N fragment of dHSA]” came in with a Per cent adsorbed in assay [1] (setting [3]) of 1.00 Per cent.

For NEETFLKKYLYE [peptide 2605], the “effect on PHA induced proliferation of PBMCs” value is “biphasic response pattern” in the assay on PBMCs (PBMCs from K92, three peptide concentrations); “inhibitory or stimulatory effects in one control each and one patient each” in the assay on PBMCs (PHA 5 μg/ml, peptides 10 μg/ml, 5 healthy controls and 4 patients); “clear stimulatory activity” in the assay on PBMCs (patient P46, lowest peptide concentration). Further, in the assay with PBMCs (PBMCs from two healthy controls, two PHA concentrations), the “effect on dHSA modulated PHA stimulated proliferation” value was “inhibited the stimulatory activity of dHSA”. Also, the “effect on dHSA enhanced PHA induced proliferation” value is “stimulated the proliferative rate” in the assay with PBMCs (peptides 10 μg/ml, lower dHSA concentrations) and “significantly inhibited the stimulatory activity” in the assay with PBMCs (peptides 10 μg/ml, two highest dHSA concentrations).

Take “AVMDDFAAFVEK [570-581, tryptic peptide of dHSA]”: the Per cent adsorbed in assay [1] (setting [2]) came out at 0.23 Per cent.

Substance “ICTLSEKERQIKKQ TALVELVKHK PKATKEQLKA VM (ICTLSEKERQIKKQTALVELVKHKPKATKEQLKAVM) [ASP-N fragment of dHSA]” had a Per cent adsorbed in assay [1] (setting [3]) of 1.00 Per cent.

As to “DRVTKCCTESLVNRRPCFSALEV [ASP-N fragment of dHSA]”, in assay [1] (ASP-DHSA), the Per cent adsobed turned out to be 0.87 Per cent.

The substance “VPQVSTPTLVEVSR [tryptic peptide of dHSA]” yielded a Per cent adsorbed in assay [1] (setting [2]) of 0.59 Per cent.

As to “YLSVVLNQLCVLHEK TPVS DRVTKC CTESLVNRRP CFSALEV”, in assay [1] (setting [3]), the Per cent adsorbed turned out to be 0.37 Per cent.

In assay [1] (setting [2]), “LKECCEKPLLEK [299-310, tryptic peptide of dHSA]” had a Per cent adsorbed of 0.36 Per cent.

“LAKYICE NQDSISSKLK ECCEKPLLEK SHCIAEVEN (LAKYICENQDSISSKLKECCEKPLLEKSHCIAEVEN) [ASP-N fragment of dHSA]”: the Per cent adsorbed in assay [1] (setting [3]) came out at 1.00 Per cent.

“VF LGMFLYEYARRHPDYSVVLLLRLAKTYETTLEKCCAAA (VFLGMFLYEYARRHPDYSVVLLLRLAKTYETTLEKCCAAA; HOMO SAPIENS) [ASP-N fragment of dHSA]”: in assay [1] (setting [3]), the Per cent adsorbed is given as 1.00 Per cent.

In assay [1] (setting [2]), “RPCFSALEVDETYVPK [tryptic peptide of dHSA]” yielded a Per cent adsorbed of 0.42 Per cent.

Regarding “KLCT VATLRETYGE MA DCCAKQEP ERNECFLQHK (KLCTVATLRETYGEMADCCAKQEPERNECFLEHK; HOMO SAPIENS) [ASP-N fragment of dHSA]”, the Per cent adsorbed in assay [1] (setting [3]) is recorded as 1.00 Per cent.

Turning to “SLHTLFGDK [089-097, tryptic peptide of dHSA]”, the Per cent adsorbed in assay [1] (setting [2]) is 0.36 Per cent.

“FKDLGEENFK [(R)FKDLGEENFK (A), tryptic peptide of dHSA]” showed a Per cent adsorbed in assay [1] (setting [2]) of 0.08 Per cent.

“LGE ENFKALVLIAFAQYLQQCPFEDHVKLVNEVTEFAKTCVA (LGEENFKALVLIAFAQYLQQCPFEDHVKLVNEVTEFAKTCVA; HOMO SAPIENS) [ASP-N fragment of dHSA]”: in assay [1] (setting [3]), the Per cent adsorbed was 1.00 Per cent.

Consider “KYLYEIAR [(K)KYLYEIAR (R), tryptic peptide of dHSA]”, for which the Per cent adsorbed in assay [1] (setting [2]) and in assay [1] (setting [4]) was 0.71 Per cent in each case.
